Where two headings read alike, the source gives them in different places.
Columns and labels:
Format in all cases: cell-based, human
[1] = tested on: normal bone marrow progenitor cells; settings: 10 μM, 72 hours; for colonies scored, mean of 10 normal bone marrow samples: colonies scored after 14 days
Description: Bone Marrow samples from donor patients were suspended in RPMI and heparin. Approximately 5 mls of Lympoprep was poured into a sterilin and the bone marrow sample was gently layered on top. The sample was centrifuged at 1800 g for 25 min, brake at 2. Following centrifugation, the buffy coat layer which contained the mononucleur fraction was gently removed using a sterile pasteur pipette and was transferred to a fresh tube. Approximately 10 mls of RPMI was added and the sample was centrifuged at 1800 g for 10 minutes, brake at 9. The supernatant was removed and the wash repeated. The pellet was resuspended in approximately 2 mls of RPMI. 20 μl was removed from the sample, mixed with 380 μl of ethidium bromide/acridine orange mix.(each at 100 μg/ml in PBS, 1:1 v/v). Ethidium bromide and acridine orange are fluorescent dyes which bind DNA. Acridine orange intercalates into DNA giving it a green appearance. Ethidium bromide is taken up by non-viable cells only. This dye also intercalates into the DNA, making it appear orange. The cells were counted under a fluorescent microscope and the volume of cells was adjusted to obtain 4×10^6 cells per ml. Cells were divided into 2 flasks and treated with 0.5% (v/v) ethanol or 10 μM PBOX-6. 100 μl was taken from each flask and added to 1.9 mls of culture media (0.58 ml methylcellulose, 0.55 ml FCS, 0.18 ml BSA, 0.21 ml RPMI, 5 U/ml of granulocytoe monocyte-colony stimulating factor (GM-CSF) and 20 U/ml of erythropoietin (EPO). Tubes were mixed by vortexing and allowed to stand for 1 min before adding 0.5 ml into each of three wells of a 4 well dish. 0.5 ml of sterile water was added to the fourth well. Plates were incubated at 37° C. for 14 days. After 14 days, colonies were scored. A colony is scored as a cluster containing >40 cells, which originates form one stem cell. […]

[2] = tested on: tyrosine phosphorylated proteins; test: Protein tyrosine phosphorylation Western blot, Jurkat cells
Description: Jurkat and CML cells (5×10^6) were harvested by centrifuigation at 1800 g for 10 min at 4° C. After being washed once with ice-cold phosphate-buffered saline, the cell pellet was suspended in 100 μl of ice-cold lysis buffer (50 mM Tris-HCl, pH 8.0, 150 mM NaCl, 0.1%.SDS, 1% Triton X-100, 1 mM sodium 1 mM phenylmethylsulfonyl, 10 ng/ml leupeptin and 10 ng/ml of aprotinin). The cells were left to sit on ice for 10 min and then centrifuged at 20,000 g for 20 min. The resulting supernatant was stored at −70° C. until measurement of tyrosine phosphorylation. Protein determination was measured by using the Bradford assay. Equal amounts of protein were resolved by SDS-polyacrylamide gel electrophoresis in 15% gels and transferred onto polyvinylidene difluoride (PVDF) membranes. Membranes were blocked with Tris-buffered saline with Tween 20 (10 mM Tris-HCl, pH 8.0, 150 mM NaCl, 0.05% Tween 20) containing 1% w/v BSA and probed with anti-phosphotyrosine antibody. Blots were washed, incubated with goat anti-mouse IgG peroxidase conjugate and developed by ECL according to the manufacturer's recommendations.

[3] = tested on: caspase 3
Description: (§1) Cells (5×10^6 cells) were harvested by centrifugation, washing in ice-cold phosphate-buffered saline and the pellets resuspended in 200 μl of harvesting buffer (20 mM Hepes, pH 7.5, 10% (w/v) sucrose, 0.1% (w/v) CHAPS, 2 mM dithiotreitol, 0.1% (v/v) Nonidet NP40, 1 mM sodium EDTA and 1 mM phenylmethylsulfonyl fluoride) supplemented with protease inhibitors (1 μg/ml pepstatin A and 1 μg/ml leupeptin). Following incubation on ice for 10 min, samples were passed up and down 10 times through a 21 gauge needle. Following a further incubation on ice for 10 min the homogenates were centrifuged at 20,000 g for 20 min and the resulting supernatants used to measure caspase 3 activity. This enzyme activity was determined by a fluorometric assay using the substrate Ac-DEVD-AMC, which is cleaved by caspase 3 to release the fluorescent leaving group, amino-4-methyl coumarin (AMC). Enzyme extracts (50 μg) were incubated with 100 mM Hepes, pH 7.5, containing 10% (w/v) sucrose, 0.1% (w/v) CHAPS, 10 mM dithiotreitol and 20 μM substrate in a total reaction volume of 3 ml. Following incubation for 60 min at 25° C., fluorescence was monitored continuously using a spectrofluorimeter (excitation wavelength 380 nm, emission wavelength 460 nm). The amount of AMC released was determined by comparison with a standard curve generated with known amounts of AMC.

[4] = tested on: caspase 3-like proteases; settings: HL-60 cells
Description: as §1

[5] = tested on: HL-60 cells; test: Agarose gel electrophoresis of DNA ladders, HL-60 cells; settings: 24 hours
[6] = tested on: PARP (poly ADP-ribose polymerase); test: Western blot of PARP cleavage in CML cells
Description: CML cells were seeded at 2×10^6 cells in 5 mls of growth medium, and treated with 10 μM PBOX-6 for 16 and 24 hr. Hela cells were seeded at 1×10^6 cells per 25 cm^2 flask. Following a 24 hour incubation, the cells were treated with PBOX-3 for a further 48 hours and the cells were scraped up. Cells were then centrifuged at 500 g for 5 min, the supernatant was removed and the pellet was resuspended in 200 μl of PARP sample buffer (62.5 mM Tris/HCl pH 6.8, 6 M urea, 10% (w/v) glycerol, 2% (w/v) SDS, 0.00125% bromophenol blue, and 5% (v/v) β-mercaptoethanol was added immediately before use). Samples were sonicated for 15 sec before aliquoting into 15 μl volumes. Samples were stored at −20° C. until use. 10-15 μl of thawed samples were resolved directly on a 10% polyacrylamide gel and transferred onto PVDF membrane at room temperature using wet transfer apparatus. After transfer, the membrane was blocked overnight in PBS containing 5% dry milk (Marvel). After blocking, the membrane was washed in PBST for 2×2 minutes before incubating for 1 hr with anti-PARP antibody (2 μg/ml in PBST containing 1% dry milk). Following incubation the membrane was washed for 20 minutes in PBST and incubated with goat anti mouse HRP conjugated secondary antibody (1:1000 dilution in PBST containing 1% dry milk). After washing in PBST for 30 minutes, ECL was used to visualise the proteins. […]

[7] = tested on: JNK1 and JNK2; settings: K562 cells

## CN(C)C(=O)OC1=C(c2cccc3ccccc23)Oc2ccccc2-n2cccc21 [PBOX-6, 7-((Dimethylcarbamoyl)oxy)-6-(1-naphthyl)pyrrolo[2,1-d][1,5]benzoxazepine]
[1]
  effect on normal bone marrow progenitor cells: no significant effect
  colonies scored, mean of 10 normal bone marrow samples: 17
[1]; listed as PBOX 6
  colonies scored, mean of 10 normal bone marrow samples: 16.9
[2]
  protein tyrosine phosphorylation: time and dose-dependent decrease in protein tyrosine phosphorylation
[3]; K562 and Lama 84, 16 hours
  caspase 3 activation: activated
[3]; KYO.1 cells
  caspase 3 activation: not detected
[4]
  time at which caspase 3-like protease activity became evident: 6 h
[4]; DEVD-AMC substrate
  activation of caspase 3-like proteases: dose-dependent activation of caspase 3-like proteases
[5]
  DNA fragmentation (ladder pattern): resulted in DNA fragmentation
[6]; K562 24 hours, Lama 84 16 hours
  PARP cleavage: PARP cleavage occurs
[6]; KYO.1 cells, 24 hours
  PARP cleavage: result in PARP cleavage
[7]
  time at which JNK activation first becomes visible: 15 min
  time of peak JNK activation: 30 to 45 min

— patent publication US6806267B1, “Apoptosis-inducing compounds” (priority 1998, dated 2004)
